The results in this text go back to ChEMBL document CHEMBL5291721, “A preclinical secondary pharmacology resource illuminates target-adverse drug reaction associations of marketed drugs” (Nat Commun, 2023).

The target of assay [1] is T1, Gamma-aminobutyric acid receptor subunit alpha-1 (Rattus norvegicus, UniProt P62813). In kind it is functional.
Assay [2] addresses T2, Muscarinic acetylcholine receptor M2 (Homo sapiens, UniProt P08172).
T2 sequence (P08172 whole entry): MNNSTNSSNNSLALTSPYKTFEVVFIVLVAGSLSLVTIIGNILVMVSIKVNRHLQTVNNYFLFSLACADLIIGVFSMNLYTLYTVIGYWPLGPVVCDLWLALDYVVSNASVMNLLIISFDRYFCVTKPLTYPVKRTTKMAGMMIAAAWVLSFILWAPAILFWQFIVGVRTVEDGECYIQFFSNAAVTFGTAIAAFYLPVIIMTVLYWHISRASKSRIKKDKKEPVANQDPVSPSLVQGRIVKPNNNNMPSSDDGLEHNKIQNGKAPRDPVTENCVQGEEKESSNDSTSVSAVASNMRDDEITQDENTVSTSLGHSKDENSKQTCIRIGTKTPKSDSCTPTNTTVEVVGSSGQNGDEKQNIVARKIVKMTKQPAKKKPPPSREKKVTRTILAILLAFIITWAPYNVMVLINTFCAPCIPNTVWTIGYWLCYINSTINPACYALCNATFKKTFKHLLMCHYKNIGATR
In kind it is functional, cell-based.

The target of assay [3] is 3',5'-cyclic-AMP phosphodiesterase 4D (Homo sapiens, UniProt Q08499). It counts as functional.
Sequence of 3',5'-cyclic-AMP phosphodiesterase 4D (Q08499 whole entry): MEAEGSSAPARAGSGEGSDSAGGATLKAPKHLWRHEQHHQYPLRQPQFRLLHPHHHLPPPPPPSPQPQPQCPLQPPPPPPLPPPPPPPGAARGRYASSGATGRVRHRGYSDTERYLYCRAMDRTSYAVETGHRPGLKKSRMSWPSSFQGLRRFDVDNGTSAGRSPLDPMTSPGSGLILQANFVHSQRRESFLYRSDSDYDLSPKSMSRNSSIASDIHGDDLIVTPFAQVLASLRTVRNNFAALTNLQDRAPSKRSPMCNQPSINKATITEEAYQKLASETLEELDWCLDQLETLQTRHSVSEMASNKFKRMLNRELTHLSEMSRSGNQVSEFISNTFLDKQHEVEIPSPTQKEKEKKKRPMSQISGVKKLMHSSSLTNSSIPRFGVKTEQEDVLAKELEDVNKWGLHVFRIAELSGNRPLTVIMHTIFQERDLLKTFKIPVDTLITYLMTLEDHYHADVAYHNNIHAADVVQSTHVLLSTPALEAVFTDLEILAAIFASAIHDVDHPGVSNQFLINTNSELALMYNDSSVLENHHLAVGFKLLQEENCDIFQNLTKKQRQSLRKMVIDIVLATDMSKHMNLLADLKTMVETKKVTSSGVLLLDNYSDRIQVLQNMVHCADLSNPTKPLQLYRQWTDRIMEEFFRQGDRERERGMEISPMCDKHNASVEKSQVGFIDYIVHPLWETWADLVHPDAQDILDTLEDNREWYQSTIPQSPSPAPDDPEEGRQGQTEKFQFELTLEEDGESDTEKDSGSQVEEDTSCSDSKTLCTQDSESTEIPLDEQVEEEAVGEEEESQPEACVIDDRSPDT
The target in a further assay is Histamine H1 receptor (Homo sapiens, UniProt P35367).
Sequence of Histamine H1 receptor (P35367 whole entry): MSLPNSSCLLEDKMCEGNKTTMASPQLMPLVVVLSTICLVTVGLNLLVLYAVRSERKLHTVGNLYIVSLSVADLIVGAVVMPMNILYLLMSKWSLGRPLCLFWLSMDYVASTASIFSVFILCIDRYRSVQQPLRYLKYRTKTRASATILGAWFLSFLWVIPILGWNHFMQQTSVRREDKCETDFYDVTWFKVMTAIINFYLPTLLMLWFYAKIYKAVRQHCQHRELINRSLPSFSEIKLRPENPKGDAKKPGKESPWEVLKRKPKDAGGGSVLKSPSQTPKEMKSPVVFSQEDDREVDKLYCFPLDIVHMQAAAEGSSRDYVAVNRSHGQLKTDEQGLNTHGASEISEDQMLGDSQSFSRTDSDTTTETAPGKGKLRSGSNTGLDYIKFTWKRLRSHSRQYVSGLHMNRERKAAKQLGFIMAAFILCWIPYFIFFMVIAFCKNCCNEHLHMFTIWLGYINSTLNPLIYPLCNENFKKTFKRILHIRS
Another assay has as its target Vasopressin V2 receptor (Homo sapiens, UniProt P30518).
The target of the next assay is T3, Glucocorticoid receptor (Homo sapiens, UniProt P04150).
T3 sequence (P04150 whole entry): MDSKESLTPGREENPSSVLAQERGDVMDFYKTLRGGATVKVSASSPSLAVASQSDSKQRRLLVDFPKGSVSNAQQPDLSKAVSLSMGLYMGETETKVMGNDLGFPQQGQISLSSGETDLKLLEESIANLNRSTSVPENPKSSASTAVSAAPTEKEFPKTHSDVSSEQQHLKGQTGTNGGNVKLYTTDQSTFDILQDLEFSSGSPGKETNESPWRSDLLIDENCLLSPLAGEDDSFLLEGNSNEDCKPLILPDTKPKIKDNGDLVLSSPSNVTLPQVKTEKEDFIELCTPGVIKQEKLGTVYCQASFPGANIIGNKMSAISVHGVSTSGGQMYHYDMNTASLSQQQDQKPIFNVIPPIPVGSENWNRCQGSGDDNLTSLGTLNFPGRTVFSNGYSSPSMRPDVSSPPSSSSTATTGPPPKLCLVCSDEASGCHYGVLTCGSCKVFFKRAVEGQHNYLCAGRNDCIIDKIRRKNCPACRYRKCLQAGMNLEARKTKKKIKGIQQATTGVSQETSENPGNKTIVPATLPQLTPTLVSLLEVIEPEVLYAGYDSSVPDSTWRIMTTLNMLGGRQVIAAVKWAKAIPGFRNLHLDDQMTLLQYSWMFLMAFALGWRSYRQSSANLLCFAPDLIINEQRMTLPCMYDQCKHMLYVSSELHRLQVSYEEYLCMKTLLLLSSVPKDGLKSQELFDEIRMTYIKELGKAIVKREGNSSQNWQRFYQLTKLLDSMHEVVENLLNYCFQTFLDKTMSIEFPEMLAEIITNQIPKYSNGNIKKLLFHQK

Assay [4] addresses 5-hydroxytryptamine receptor 2B (Homo sapiens, UniProt P41595). In kind it is functional, cell-based.
Assay [5] addresses T1, Gamma-aminobutyric acid receptor subunit alpha-1.
The target of the next assay is T4, Adenosine receptor A1 (Homo sapiens, UniProt P30542).
T4 sequence (P30542 whole entry): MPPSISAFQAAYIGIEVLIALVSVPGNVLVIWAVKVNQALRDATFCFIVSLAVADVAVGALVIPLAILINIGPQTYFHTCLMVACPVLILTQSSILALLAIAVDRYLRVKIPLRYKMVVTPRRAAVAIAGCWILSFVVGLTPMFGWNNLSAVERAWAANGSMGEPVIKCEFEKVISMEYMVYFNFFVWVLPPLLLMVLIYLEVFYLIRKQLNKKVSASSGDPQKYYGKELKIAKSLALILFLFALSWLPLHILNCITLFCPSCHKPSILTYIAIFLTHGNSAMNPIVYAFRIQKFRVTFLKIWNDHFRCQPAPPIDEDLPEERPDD

The target in assay [6] is T5, Type-1 angiotensin II receptor (Homo sapiens, UniProt P30556).
T5 sequence (P30556 whole entry): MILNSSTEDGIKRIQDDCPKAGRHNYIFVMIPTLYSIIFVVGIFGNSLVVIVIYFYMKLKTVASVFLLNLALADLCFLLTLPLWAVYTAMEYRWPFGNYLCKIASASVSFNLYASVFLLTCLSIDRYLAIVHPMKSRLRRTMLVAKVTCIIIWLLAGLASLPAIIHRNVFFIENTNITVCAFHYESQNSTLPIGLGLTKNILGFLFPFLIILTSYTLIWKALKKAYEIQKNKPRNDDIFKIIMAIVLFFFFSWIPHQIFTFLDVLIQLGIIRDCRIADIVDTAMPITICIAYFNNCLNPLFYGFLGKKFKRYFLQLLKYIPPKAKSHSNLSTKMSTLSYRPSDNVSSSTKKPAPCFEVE

Another assay concerns the target Cannabinoid receptor 1 (Homo sapiens, UniProt P21554). In kind it is functional, cell-based.
Note: assay procedure not described here.

T1 sequence (P62813 whole entry): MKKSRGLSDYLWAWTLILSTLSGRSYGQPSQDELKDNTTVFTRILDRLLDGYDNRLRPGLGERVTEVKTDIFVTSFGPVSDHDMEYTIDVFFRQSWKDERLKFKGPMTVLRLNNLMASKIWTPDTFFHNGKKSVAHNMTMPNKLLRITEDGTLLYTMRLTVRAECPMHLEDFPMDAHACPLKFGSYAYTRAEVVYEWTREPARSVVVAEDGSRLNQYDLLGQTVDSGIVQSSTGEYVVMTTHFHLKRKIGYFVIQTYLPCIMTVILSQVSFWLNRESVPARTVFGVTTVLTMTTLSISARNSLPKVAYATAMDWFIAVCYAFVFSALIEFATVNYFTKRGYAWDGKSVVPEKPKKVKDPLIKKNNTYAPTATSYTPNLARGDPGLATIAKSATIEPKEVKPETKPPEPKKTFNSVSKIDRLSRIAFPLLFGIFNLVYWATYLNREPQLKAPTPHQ
Sequence of 5-hydroxytryptamine receptor 2B (P41595 whole entry): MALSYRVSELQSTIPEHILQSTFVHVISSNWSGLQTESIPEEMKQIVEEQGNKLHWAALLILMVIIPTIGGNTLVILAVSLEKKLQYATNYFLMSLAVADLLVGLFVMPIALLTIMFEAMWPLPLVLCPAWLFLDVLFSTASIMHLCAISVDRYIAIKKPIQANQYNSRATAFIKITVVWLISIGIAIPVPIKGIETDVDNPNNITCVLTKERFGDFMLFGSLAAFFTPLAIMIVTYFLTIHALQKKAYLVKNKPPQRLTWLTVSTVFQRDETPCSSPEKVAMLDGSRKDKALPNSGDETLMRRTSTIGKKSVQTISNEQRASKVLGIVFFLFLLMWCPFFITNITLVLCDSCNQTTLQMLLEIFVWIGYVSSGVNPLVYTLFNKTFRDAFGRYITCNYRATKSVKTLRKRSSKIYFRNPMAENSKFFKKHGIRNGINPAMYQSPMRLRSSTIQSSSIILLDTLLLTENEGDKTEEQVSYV
Sequence of Cannabinoid receptor 1 (P21554 whole entry): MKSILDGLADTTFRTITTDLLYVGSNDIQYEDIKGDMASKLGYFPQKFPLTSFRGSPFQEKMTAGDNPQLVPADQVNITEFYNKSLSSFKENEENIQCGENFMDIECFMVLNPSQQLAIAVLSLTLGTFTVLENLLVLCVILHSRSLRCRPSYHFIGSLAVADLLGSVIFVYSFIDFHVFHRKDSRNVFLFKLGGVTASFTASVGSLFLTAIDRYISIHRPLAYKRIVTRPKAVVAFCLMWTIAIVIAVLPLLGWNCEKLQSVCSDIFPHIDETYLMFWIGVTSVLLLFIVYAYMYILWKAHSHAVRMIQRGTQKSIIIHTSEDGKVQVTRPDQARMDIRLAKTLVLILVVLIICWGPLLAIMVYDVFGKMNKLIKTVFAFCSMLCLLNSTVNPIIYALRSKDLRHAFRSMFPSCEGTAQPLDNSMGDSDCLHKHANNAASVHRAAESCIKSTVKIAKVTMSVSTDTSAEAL

In the case of `CCC(=O)[C@@]1(C)[C@H](C)C[C@H]2[C@@H]3CCC4=CC(=O)C=C[C@]4(C)[C@H]3[C@@H](O)C[C@@]21C` [RIMEXOLONE], the AC50 in [1] was more than 10 µM; in assay [2], more than 10 µM; in assay [3], more than 30 µM; at Histamine H1 receptor it was more than 10 µM; on Vasopressin V2 receptor, more than 10 µM; at Glucocorticoid receptor it was 0.01 µM. The AC50 (in assay [4]; in assay [5]; at Adenosine receptor A1; in assay [6]) was more than 10 µM in each case.
As for `CN1CCC(=C2c3ccccc3CC(=O)c3sccc32)CC1` [KETOTIFEN], the AC50 in assay [1] is more than 10 µM; in assay [2] it was 1.9 µM; in assay [3] it was more than 30 µM; at Vasopressin V2 receptor it was more than 10 µM; on Glucocorticoid receptor, more than 10 µM; in assay [4], 0.09 µM. Moreover, the AC50 in assay [5] was more than 10 µM; at Adenosine receptor A1, more than 10 µM; in assay [6], more than 10 µM; at Cannabinoid receptor 1, more than 30 µM.
Consider TEPRENONE, for which the AC50 in [1] is more than 10 µM; in assay [2], more than 10 µM; in assay [3], more than 30 µM; on Histamine H1 receptor it was more than 10 µM; on Vasopressin V2 receptor it was more than 30 µM; on Glucocorticoid receptor it was more than 30 µM. The AC50 is more than 10 µM in assay [4]; more than 10 µM in [5]; more than 30 µM on Adenosine receptor A1; 8.72 µM in assay [6]; more than 30 µM at Cannabinoid receptor 1.
For the compound `CCC1(CC)C(=O)NC(=O)N(C)C1=O` [METHARBITAL], the AC50 in assay [1] was more than 10 µM; in assay [2], more than 10 µM; in assay [3], more than 30 µM; on Histamine H1 receptor, more than 10 µM; at Vasopressin V2 receptor, more than 10 µM; on Glucocorticoid receptor, more than 10 µM. Moreover, the AC50 (in assay [4]; in [5]; on Adenosine receptor A1; in [6]) was more than 10 µM throughout.
Take `CC(=O)OCC1=C(C(=O)O)N2C(=O)[C@@H](NC(=O)CSc3ccncc3)[C@H]2SC1` [CEPHAPIRIN]: the AC50 in [1] was more than 10 µM; in [2], more than 10 µM; in [3], more than 30 µM; at Histamine H1 receptor it was more than 10 µM; at Vasopressin V2 receptor, more than 10 µM; on Glucocorticoid receptor, more than 30 µM. Also, the AC50 (in [4]; in assay [5]; on Adenosine receptor A1; in assay [6]) was more than 10 µM each time.
For `CC(C)(C)NCC(O)COc1cccc2c1CC(O)C(O)C2` (stereo not given) [NADOLOL], the AC50 in assay [1] is more than 10 µM; in [2], more than 10 µM; in assay [3], more than 30 µM; on Vasopressin V2 receptor it was more than 10 µM; on Glucocorticoid receptor, more than 10 µM; in assay [4], more than 10 µM. In addition, the AC50 in assay [5] was more than 10 µM; at Adenosine receptor A1 it was more than 10 µM; in assay [6] it was more than 10 µM; at Cannabinoid receptor 1 it was more than 30 µM.
Regarding `O=C(C[S+]([O-])Cc1ccco1)NC/C=C\COc1cc(CN2CCCCC2)ccn1` (stereo not given) [LAFUTIDINE], the AC50 in assay [1] is more than 10 µM; in assay [2], more than 10 µM; in assay [3], more than 30 µM; on Histamine H1 receptor, more than 10 µM; at Vasopressin V2 receptor, more than 10 µM; on Glucocorticoid receptor it was more than 10 µM. The AC50 in [4] was more than 10 µM; in assay [5], more than 10 µM; on Adenosine receptor A1 it was more than 10 µM; in assay [6] it was more than 10 µM; on Cannabinoid receptor 1, more than 30 µM.
Consider `CN(C)CCOC(=O)C(c1ccccc1)C1(O)CCCC1` (stereo not given) [CYCLOPENTOLATE], for which the AC50 in assay [1] is more than 10 µM; in assay [2], 0.29 µM; in assay [3], more than 30 µM; on Histamine H1 receptor, more than 30 µM; at Vasopressin V2 receptor it was more than 10 µM; on Glucocorticoid receptor, more than 10 µM. Further, the AC50 (in assay [4]; in assay [5]; at Adenosine receptor A1; in [6]) was more than 10 µM each time.
Regarding `O=C(O)CCCC[C@@H]1SC[C@@H]2NC(=O)N[C@@H]21` [BIOTIN], the AC50 in assay [2] is more than 10 µM; in assay [3], more than 30 µM; at Histamine H1 receptor it was more than 10 µM; at Vasopressin V2 receptor, more than 10 µM; on Glucocorticoid receptor it was more than 10 µM; in assay [4], more than 10 µM. Further, the concentration at half-maximal activity (AC50) (on Adenosine receptor A1; in assay [6]) was more than 10 µM in each case.
With `Cc1cnc(Nc2ccc(OCCN3CCCC3)cc2)nc1Nc1cccc(S(=O)(=O)NC(C)(C)C)c1` [FEDRATINIB], the half-maximal activity concentration (AC50) in assay [1] was more than 10 µM; in assay [2], more than 10 µM; in assay [3], 0.22 µM; on Histamine H1 receptor it was more than 10 µM; on Vasopressin V2 receptor, more than 30 µM; at Glucocorticoid receptor, more than 30 µM. The AC50 is more than 10 µM in [4], more than 10 µM in assay [5], 7.17 µM at Adenosine receptor A1 and more than 30 µM in assay [6].
Take `CCOC(=O)O[C@]1(C(=O)COC(=O)CC)CC[C@H]2[C@@H]3CCC4=CC(=O)C=C[C@]4(C)[C@H]3[C@@H](O)C[C@@]21C` [PREDNICARBATE]: the AC50 is more than 10 µM in assay [1]; more than 10 µM in assay [2]; more than 30 µM in assay [3]; more than 10 µM on Histamine H1 receptor; more than 10 µM on Vasopressin V2 receptor; 0.017 µM on Glucocorticoid receptor. In addition, the half-maximal activity concentration (AC50) (in [4]; in assay [5]; on Adenosine receptor A1; in assay [6]) was more than 10 µM each time.
As to `OCC(CO)N[C@H]1C[C@](O)(CO)[C@@H](O)[C@H](O)[C@H]1O` [VOGLIBOSE], the AC50 (in assay [1]; in assay [2]; in [3]; at Histamine H1 receptor; at Vasopressin V2 receptor; at Glucocorticoid receptor) was more than 30 µM each time. The AC50 (in assay [4]; in [5]; at Adenosine receptor A1; in assay [6]) was more than 30 µM throughout.
As for `CC(C)CN(C[C@@H](O)[C@H](Cc1ccccc1)NC(=O)O[C@H]1CCOC1)S(=O)(=O)c1ccc(N)cc1`, the AC50 in assay [1] was more than 10 µM; in assay [2], more than 10 µM; in assay [3], more than 30 µM; at Vasopressin V2 receptor, more than 30 µM; at Glucocorticoid receptor, more than 10 µM; in assay [4] it was more than 10 µM. In addition, the AC50 is more than 10 µM in [5], more than 30 µM at Adenosine receptor A1, more than 10 µM in assay [6] and more than 30 µM at Cannabinoid receptor 1.
Regarding `OCC(O)COc1ccc(Cl)cc1` (stereo not given), the AC50 is more than 10 µM in [1]; more than 10 µM in assay [2]; more than 30 µM in assay [3]; more than 10 µM at Histamine H1 receptor; more than 10 µM at Vasopressin V2 receptor; more than 10 µM at Glucocorticoid receptor. The AC50 (in assay [4]; in [5]; on Adenosine receptor A1; in assay [6]) was more than 10 µM throughout.

One may read the AC50 as the concentration giving half of the maximal activity seen.
